The results in this text go back to patent publication EP4567040A1, “CRYSTAL FORM OF FUSED TRICYCLIC DERIVATIVE AND PREPARATION METHOD” (Jiangsu Hengrui Pharmaceuticals Co., Ltd., priority 2022, dated 2024).

In this test the target is T1, CDK4/CyclinD1 (Homo sapiens, UniProt P11802).
T1 construct: purchased ProQinase 0142-0143-1
Put plainly: Kinase activity assay, mobility shift assay (CDK4/CyclinD1). The note with it: Table 18; read-out: CDK4/D1 IC50. It counts as biochemical. Here is the method:
In vitro CDK kinase activity was tested using a mobility shift assay. […] A proper amount of kinase was added to the 1× kinase buffer to prepare a 2.5× enzyme solution. 5× compound dilutions (1× kinase buffer, 10% DMSO) corresponding to the test concentrations of the compounds were prepared. […] 5 µL of 5× compound dilution and 10 µL of 2.5× enzyme solution were added to reaction wells of a 384-well reaction plate. After thorough mixing, the plate was incubated at room temperature for 10 min. […] The reaction plate was incubated at 28 °C for 60 min (biochemical incubator model: SPX-100B-Z). 30 µL of stop solution was added to the 384-well reaction plate to stop the reactions, and the plate was centrifuged at 1000 rpm for 1 min.
IC50 values for the compounds were obtained by fitting using XLFit excel add-in version 5.4.0.8. Fitting formula: Y = Bottom + (Top−Bottom)/(1+((IC50/X))^(∧)HillSlope). [formula]

T1 sequence (P11802 whole entry): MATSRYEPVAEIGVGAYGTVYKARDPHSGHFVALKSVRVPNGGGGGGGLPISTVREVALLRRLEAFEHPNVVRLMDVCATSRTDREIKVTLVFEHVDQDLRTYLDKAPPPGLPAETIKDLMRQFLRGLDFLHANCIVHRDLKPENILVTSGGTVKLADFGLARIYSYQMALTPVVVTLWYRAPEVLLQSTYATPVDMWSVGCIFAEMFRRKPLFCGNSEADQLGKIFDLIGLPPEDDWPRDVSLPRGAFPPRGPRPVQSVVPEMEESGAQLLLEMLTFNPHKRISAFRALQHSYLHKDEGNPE
T1 sequence (P24385 whole entry partner): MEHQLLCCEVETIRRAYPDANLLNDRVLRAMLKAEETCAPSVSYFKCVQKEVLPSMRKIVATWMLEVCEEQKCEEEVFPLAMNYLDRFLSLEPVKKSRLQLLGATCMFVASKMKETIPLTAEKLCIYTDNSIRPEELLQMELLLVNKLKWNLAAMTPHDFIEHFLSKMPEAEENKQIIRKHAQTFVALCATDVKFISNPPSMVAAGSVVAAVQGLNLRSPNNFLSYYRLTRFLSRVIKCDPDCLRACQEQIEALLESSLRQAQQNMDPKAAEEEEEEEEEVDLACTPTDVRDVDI

Regarding `C[C@@H]1COc2c(-c3nc(N[C@@H]4CCOC[C@H]4O)ncc3Cl)cc(F)c3nc(C(C)(C)O)n1c23` (single isomer, unassigned) [Isomer 2 with a retention time of 1.887 min], the IC50 turned out to be 0.014 µM.

For the compound `C[C@H]1COc2c(-c3nc(N[C@@H]4CCOC[C@H]4O)ncc3Cl)cc(F)c3nc(C(C)(C)O)n1c23` (single isomer, unassigned) [Isomer 1 with a retention time of 2.078 min], the IC50 turned out to be 0.0082 µM.
